Experimental data taken from patent US9493482B2, “Compounds and methods for preventing or treating sensory hair cell death” (University of Washington, priority 2015, dated 2016).
Counter-ions that a name gives are not always drawn.

Key:
[1] = Auditory Brainstem Response (ABR) Assay; assay type: in vivo, rats; conditions: Day 24 vs Day 0, FIG. 2
Experimental: Chronic treatment of rats with aminoglycosides (AGs) such as kanamycin or amikacin results in an elevation of ABR thresholds, typically most pronounced at higher frequencies. For rats, hearing is tested at a range of frequencies to determine the intensity of sound (measured in decibels) necessary to evoke a response. As hearing loss becomes more severe, a higher intensity is needed to evoke a response. Each rat serves as its own control; hearing thresholds are determined at each frequency prior to any treatment and then at 2 weeks after a 10-day course of AG treatment (or control drug exposures).
The ABR assay measures short latency field potentials recorded from the scalp of animals that were sedated or noninvasively immobilized. […] For each animal, hearing thresholds, wave 1 latencies and input-output functions for stimulus frequencies at 2, 4, 8, 16 and 32 kHz were measured prior to any treatment to determine the initial sensitivity and dynamic range of hearing, and then repeated at the end of drug treatment and at the end of the experiment (2-weeks after dosing). […]
ABR records were evaluated by a “blinded”, trained experimenter. Hearing loss (Threshold Shift) was determined by subtracting the threshold during pre-treatment (Day 0) from the final ABR threshold (Day 24; two weeks following treatment). […]

[2] = Effect of Amikacin and Compound 9 on Kidney Function: creatinine clearance; assay type: in vivo, Fischer 344 rats; conditions: FIG. 3
Experimental: (§1) The study consisted of three groups of Fischer 344 rats aged 6 weeks and weighing approximately 200 g at the start of the study. Group 1 consisted of six rats, randomly selected to receive amikacin only, Group 2 consisted of six rats chosen randomly to receive amikacin and compound 9, and Group 3 consisted of three rats, 2 rats given compound 9 and 1 rat given only 0.5% Methylcellulose, the diluent for compound 9. All animals receiving amikacin were given 320 mg/kg subcutaneously (SQ) from a freshly prepared solution of amikacin of 40 mg/mL. The compound 9 formulation was prepared by weighing 13.08 mg of compound 9 dissolved in 12 mL of 0.5% MC in saline with vortexing, sonification and homogenization to obtain a solution with concentration at 12 mg/12 mL=1 mg/mL, dose volume is 5 mL/kg (5 mg/kg). The compound 9 solution was given by oral gavage at a dose of 5 mg/kg.
(§2) One day prior to the onset of dosing, blood was drawn from all rats for serum analysis and all rats were put into metabolic cages for 24 hour urine collection and analysis. All rats were returned to normal cages and allowed to eat and drink ad lib. All rats received their assigned treatments for 10 days and then were returned to metabolic cages for the 10th day. […] The pathologist read the slides, blinded to the group from which they were assigned. […]

kidney = assay: Kidney histopathology after amikacin with or without compound 9; assay type: in vivo, Fischer 344 rats; conditions: amikacin only, section type (longitudinal or cross) not stated, FIG. 4
Experimental: as §1, §2

| Hearing loss (Threshold Shift) ([1]; amikacin alone SC 320 mg/kg/day for 10 days) | creatinine clearance (CrCl) post treatment vs baseline ([2]; Group 1: amikacin only 320 mg/kg SQ for 10 days) | Compound | Hearing loss (Threshold Shift), high frequency ([1]; AMI/320 (amikacin SC 320 mg/kg/day) + Compound 9 PO 5 mg/kg/day for 10 days) | creatinine clearance (CrCl) post treatment vs baseline ([2]; Group 2: amikacin 320 mg/kg SQ + compound 9 5 mg/kg oral gavage for 10 days) | kidney histopathology damage score (0-4) (kidney; first stated change (3.9 to 3.6)) | kidney histopathology damage score (0-4) (kidney; second stated change (3.9 to 3.1)) |
| --- | --- | --- | --- | --- | --- | --- |
| – | – | CN1[C@H]2CC[C@@H]1c1c(sc(NC(=O)Nc3ccc(Cl)cc3)c1C(N)=O)C2 [Compound 9, (4R,7S)-2-(3-(4-chlorophenyl)ureido)-9-methyl-5,6,7,8-tetrahydro-4H-4,7-epiminocyclohepta[b]thiophene-3-carboxamide hydrochloride] | robust protection | significantly different from baseline | – | – |
| hearing loss | significantly different from baseline | NCC[C@H](O)C(=O)N[C@@H]1C[C@H](N)[C@@H](O[C@H]2O[C@H](CN)[C@@H](O)[C@H](O)[C@H]2O)[C@H](O)[C@H]1O[C@H]1O[C@H](CO)[C@@H](O)[C@H](N)[C@H]1O [amikacin] | – | – | 3.9 | 3.9 |
